These results are taken from patent US20140350119A1, “OPHTHALMIC COMPOSITION COMPRISING GERANYLGERANYLACETONE” (ROHTO PHARMACEUTICAL CO., LTD., priority 2012, published 2014).

Assay [1] has as its system IL-8 production by TNF-α in ARPE-19. Description: Inhibitory effect on IL-8 production by TNF-α from retinal pigment epithelial cells. Type of assay: cell-based, human. The following applies: all-trans form content 50 μM, 16 hours, TNF-α 4 hours, FIG. 5, n=3. The source says:
Age-related macular degeneration is known to involve the accumulation of drusen under the retinal pigment epithelium. Drusen attract macrophages and macrophages secrete TNF-α. TNF-α acts on the retinal pigment epithelium and its peripheral tissue, and the cells subsequently produce a variety of cytokines and cause inflammation (Mol Vis. 2008 14: 2292-303). A typical cytokine that is involved in neutrophil migration and spreads inflammation is interleukin-8 (IL-8). In this experiment, the inhibitory effect of GGA on IL-8 production by TNF-α was examined using a human-derived retinal pigment epithelial cell line, ARPE-19. […]
After 4 hours of incubation, 150 μL of the cell culture supernatant was collected and stored at −80° C. […] Then, 100 μL of an equivalent mixture of a cell viability detection reagent Cell Titer-Glo and PBS was added to each well and the luminescence produced by the reaction with ATP in living cells was measured with a luminometer. From the measured luminescence, the cell viability was calculated by the following formula.
Cell viability (%)=100×[(luminescence of GGA-treated group)/(luminescence of base-treated group)]
The stored cell culture supernatant was allowed to warm to room temperature, and the IL-8 concentration was quantified with Human CXCL8/IL-8 Quantikine ELISA Kit (R&D Systems). […]

Assay [2] concerns rat models with glaucoma induced by NMDA. Description: Protective effect for retinal ganglion cells against nerve damage by NMDA (thickness of inner plexiform layer). Type of assay: in vivo, Sprague-Dawley (SD) rats. The text has this: In recent years the glutamate analogue NMDA (N-methyl-D-aspartate) has been widely reported to be one of causative agents of neurodegenerative diseases including Alzheimer's disease. In the ophthalmic field, NMDA is considered to be involved in optic nerve damage in glaucoma (Brain Research Bulletin, 81 (2010) 349-358). Accordingly, in this experiment rat models with glaucoma induced by NMDA were used to evaluate the neuroprotective effect of GGA.
To Sprague-Dawley (SD) rats, the all-trans form, the 5Z-mono-cis form and teprenone were separately pre-administered by oral administration (Test Example 1), intravitreal administration (Test Example 2) or ocular instillation administration (Test Example 3) and 5 μL of NMDA was administered into the vitreous body to induce nerve damage. For Test Example 2, a marketed therapeutic eye drop for glaucoma, AIPHAGAN (trade name), was intravitreally administered as a positive control once a day for five days. For each of Test Examples, a base not containing GGA or AIPHAGAN was administered as a control in the same manner as described above.
The dosage and regimen of Test Examples 1 to 3 are shown in Table 1 and the constitution of the base used in each tests are shown in Table 2.
Three days after administration of NMDA, the eyeballs were harvested, fixed with half Karnovsky's fixative for 24 hours, embedded in paraffin, thin sectioned and stained with hematoxylin-eosin (HE) to prepare histopathological sections. The histological sections were observed under an optical microscope and the thickness (μm) of the inner plexiform layer (IPL) of the retina was measured. From the thickness of the inner plexiform layer (IPL) of the retina, the neuroprotective effects of the test preparations were evaluated.

`CC(=O)CC/C=C(\C)CC/C=C(\C)CC/C=C(\C)CCC=C(C)C` [all-trans form, (5E,9E,13E)-6,10,14,18-tetramethyl-5,9,13,17-nonadecatetrae n-2-one]: the “Inhibitory effect on IL-8 production compared with GGA 6:4” value in assay [1] is “significant inhibitory effect on IL-8 production”. In addition, the “Neuroprotective effect against nerve damage by NMDA compared with the base (IPL thickness)” value is given as “significant neuroprotective effects” in assay [2] (Test Example 1: oral, 800 mg/kg, 2 days, once per day, NMDA 4 mM, FIG. 6); “significant neuroprotective effects” in assay [2] (Test Example 2: intravitreal, 0.05% w/v, 5 days, once per day, NMDA 40 mM, FIG. 7); “significant neuroprotective effect” in assay [2] (Test Example 3: ocular instillation, 1% w/v, 5 days, 5 times per day, NMDA 4 mM, FIG. 9). The “Neuroprotective effect compared with AIPHAGAN Ophthalmic Solution 0.1%” value in assay [2] (Test Example 2: intravitreal, 0.05% w/v, 5 days, NMDA 40 mM, FIG. 7) was “significantly superior neuroprotective effect”.
